Assays:
[1] = target: T1, catalytic domain of human collagenase-3 (MMP-13) (Homo sapiens, UniProt P45452); assay: Enzymatic activity of the catalytic domain of human collagenase-3 (MMP-13), fluorogenic substrate; format: biochemical
T1 construct: Determination of the Enzymatic Activity of the Catalytic Domain of Human Collagenase-3 (MMP-13); purchased INVITEK, Berlin
Protocol: Determination of the Enzymatic Activity of the Catalytic Domain of Human Collagenase-3 (MMP-13)
(§1) Activation of the proenzyme: 2 parts by volume of proenzyme were incubated with 1 part by volume of APMA solution at 37° C. for 1.5 hours. The APMA solution was prepared from a 10 mmol/l p-aminophenylmercuric acetate solution in 0.1 mmol/l NaOH by dilution with 3 parts by volume of Tris/HCl buffer pH 7.5 (see below). The pH was adjusted to between 7.0 and 7.5 by adding 1 mmol/l HCl. After activation of the enzyme it was diluted with the Tris/HCl buffer to a concentration of 1.67 μg/ml.
(§2) The enzymic activity was measured by incubating 10 μl of enzyme solution with 10 μl of a 3% strength (v/v) buffered dimethyl sulfoxide solution (reaction 1) for 15 minutes. The enzyme inhibitor activity was measured by incubating 10 μl of enzyme solution with 10 μl of a 3% strength (v/v) buffered dimethyl sulfoxide solution which contained the enzyme inhibitor (reaction 2).
The enzymic reaction both in the case of reaction 1 and in the case of reaction 2 was followed after addition of 10 μl of a 3% strength (v/v) aqueous dimethyl sulfoxide solution which contained 0.075 mmol/l of the substrate by fluorescence spectroscopy (328 nm (extinction)/393 nm (emission)).
The enzymic activity has been presented as increase in extinction/minute. The effect of the inhibitor was calculated as percentage inhibition by the following formula: % inhibition=100−[(increase in extinction/minute in reaction 2)/(increase in extinction/minute in reaction 1)×100].
(§3) The IC50, which is the concentration of inhibitor which is necessary for 50% inhibition of the enzymic activity, was determined graphically by plotting the percentage inhibitions at various inhibitor concentrations.
(§4) The buffer solution contained 0.05% Brij (Sigma, Deisenhofen, Germany) and 0.1 mol/l Tris/HCl, 0.1 mol/l NaCl, 0.01 mol/l CaCl2 (pH=7.5). The enzyme solution contained 1.67 μg/ml of the enzyme domain. The substrate solution contained 0.075 mmol/l of the fluorogenic substrate (7-methoxycoumarin-4-yl)acetyl-Pro-Leu-Gly-Leu-3-(2′,4′-dinitrophenyl)-L-2,3-diaminopropionyl-Ala-Arg-NH2 (Bachem, Heidelberg, Germany).

[2] = target: T2, catalytic domain of human gelatinase-A (MMP-9) (Homo sapiens, UniProt P14780); assay: Enzymatic activity of the catalytic domain of human gelatinase (MMP-9), fluorogenic substrate; format: biochemical; settings: for MMP9:MMP1, selectivity of inhibition of MMP-9 in relation to MMP-1: ratio of the IC50 values of Table 4
T2 construct: Determination of the Enzymatic Activity of the Catalytic Domain of Human Gelatinase-A (MMP-9); purchased Roche, Mannheim
T2 sequence (P14780 107-707 limits assumed): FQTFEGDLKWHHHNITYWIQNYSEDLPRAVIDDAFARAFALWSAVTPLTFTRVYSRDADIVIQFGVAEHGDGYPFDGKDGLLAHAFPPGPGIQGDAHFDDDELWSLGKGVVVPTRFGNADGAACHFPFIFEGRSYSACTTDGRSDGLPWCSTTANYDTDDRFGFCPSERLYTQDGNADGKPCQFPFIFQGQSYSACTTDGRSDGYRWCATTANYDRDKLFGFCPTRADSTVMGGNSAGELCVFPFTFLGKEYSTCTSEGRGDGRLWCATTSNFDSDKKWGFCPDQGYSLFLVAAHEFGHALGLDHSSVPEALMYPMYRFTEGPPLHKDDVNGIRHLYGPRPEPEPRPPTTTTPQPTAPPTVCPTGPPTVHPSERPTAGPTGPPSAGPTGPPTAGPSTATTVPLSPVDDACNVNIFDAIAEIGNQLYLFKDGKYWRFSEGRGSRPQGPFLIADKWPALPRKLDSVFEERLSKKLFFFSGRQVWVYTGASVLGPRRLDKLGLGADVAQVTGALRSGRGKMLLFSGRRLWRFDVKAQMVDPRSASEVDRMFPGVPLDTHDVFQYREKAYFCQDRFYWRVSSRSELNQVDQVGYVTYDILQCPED
Protocol: Determination of the Enzymatic Activity of the Catalytic Domain of Human Gelatinase-A (MMP-9)
Activation of the proenzyme:
as §1, with “2” for “Activation of the proenzyme: 2”, “4” for “1.5”, “4.2 mU/ml.” for “1.67 μg/ml.”
as §2
The enzymic reaction both in the case of reaction 1 and in the case of reaction 2 was followed after addition of 10 μl of a 3% strength (v/v) aqueous dimethyl sulfoxide solution which contained 0.15 mmol/l of the substrate by fluorescence spectroscopy (328 nm (extinction)/393 nm (emission)).
The enzymic activity has been presented as increase in extinction/minute.
The effect of the inhibitor was calculated as percentage inhibition by the following formula: % inhibition=100−[(increase in extinction/minute in reaction 2)/(increase in extinction/minute in reaction 1)×100].
as §3
as §4, with “4.2 mU/ml” for “1.67 μg/ml”, “0.15” for “0.075”

Molecule	IC50 [1] [nM]	IC50 [2] [nM]	MMP9:MMP1, selectivity of inhibition of MMP-9 in relation to MMP-1 [2]
2-{2-[4-(4-fluorophenoxy)phenyl]ethanesulfonyl}-1,2,3,4-tetrahydroisoquinoline-1-hydroxycarboxamide [Compound 20]	2.2	1.3	231
O=C(NO)[C@H]1c2ccccc2CCN1S(=O)(=O)c1ccc(Oc2ccc(Cl)cc2)cc1 [Compound 9]	2.1	1	2
O=C(NO)[C@H]1c2ccccc2CCN1S(=O)(=O)c1ccc(Oc2ccncc2)cc1 [Compound 11]	2.3	1.8	78
COc1cc2c(cc1OC)[C@@H](C(=O)NO)N(S(=O)(=O)c1ccc(-c3ccc(Cl)cc3)cc1)CC2 [Compound 15]	2	1	300
COc1ccc(F)c2c1[C@H](C(=O)NO)N(S(=O)(=O)c1ccc(-c3ccc(Cl)cc3)cc1)CC2 [Compound 18]	7.5	60	67
O=C(NO)[C@H]1c2ccccc2CCN1S(=O)(=O)c1ccc(Oc2ccc(C(F)(F)F)cc2)cc1 [Compound 21, (R)-2-[4-(4-trifluoromethylphenoxy)benzenesulfonyl]-1,2,3,4-tetrahydro-isoquinoline-1-hydroxycarboxamide]	2.5	3.2	313
O=C(NO)[C@H]1c2ccccc2CCN1S(=O)(=O)c1ccc(Oc2ccc(OCC(F)(F)F)cc2)cc1 [Compound 22]	130	18	89
O=C(NO)[C@H]1c2ccccc2CCN1S(=O)(=O)c1ccc(Oc2ccc(OC(F)(F)F)cc2)nc1 [Compound 43, (R)-2-[6-(4-trifluoromethoxyphenoxy)pyridine-3-sulfonyl]-1,2,3,4-tetrahydro-isoquinoline-1-hydroxycarboxamide]	30	20	>500
O=C(NO)[C@H]1c2ccccc2CCN1S(=O)(=O)c1ccc(Oc2ccc(Cl)cc2)nc1 [Compound 45, (R)-2-[6-(4-chlorophenoxy)pyridine-3-sulfonyl]-1,2,3,4-tetrahydroisoquinoline-1-hydroxycarboxamide]	8	3	667
(R)-4-(1-hydroxycarbamoyl-3,4-dihydro-1H-isoquinoline-2-sulfonyl)phenyl benzoate [Compound 48]	3	2	–

Reference: patent US20070203118A1, “SUBSTITUTED TETRAHYDROISOQUINOLINES USED IN THE FORM OF MMP INHIBITORS, METHOD FOR THE PRODUCTION AND USE THEREOF IN THE FORM OF DRUGS” (SANOFI-AVENTIS DEUTSCHLAND GMBH, priority 2004, published 2007)
